According to publication PMC11267380, “USP25 Elevates SHLD2‐Mediated DNA Double‐Strand Break Repair and Regulates Chemoresponse in Cancer” (Advanced Science, 2024):

What was measured:
USP25-MDC1 interaction = assay: Co-IP of USP25-MDC1 interaction after DNA damage; format: cell-based; conditions: 5-Fu (20 uM), HEK293T and RKO
Procedure: USP25 was immunoprecipitated and immunoblotted with p‐SQ/TQ. d) USP25 knockdowm U2OS cells rescued with USP25WT or USP25T523A were treated with IR (2 Gy), and co‐localization USP25 with γH2AX was detected by immunofluorescence. n>80 in each group. e) HEK293T cells were left untreated or treated with 5‐Fu (20 uM). MDC1 was immunoprecipitated and immunoblotted with USP25. f) HEK293T cells transfected with USP25 were treated with 5‐Fu (20 uM), and cell lysates were incubated with GST or GST‐MDC1 deletions in vitro. […] The interaction USP25 and MDC1‐BRCT was detected. h) Non‐phosphorylated or phosphorylated Thr523 peptide was conjugated to beads and incubated with purified GST‐MDC1‐BRCT domain in buffer.
Flag was immunoprecipitated and immunoblotted with indicated antibodies. c-d) RKO cells were left untreated or treated with 5-Fu (20uM)(c) or IR(10Gy)(d). […] The interaction USP25 and MDC1-BRCT was detected.

[1] = test system: USP25 and MDC1 BRCT-domain / FHA-domain; assay: GST pull-down of USP25 with MDC1 deletions after 5-Fu; format: cell-based, human; conditions: 5-Fu (20 uM), HEK293T lysates
Procedure: Figure 4 Regulation of the DDR signaling by USP25. a) HEK293T cells were left untreated or treated with IR (10 Gy) or 5‐Fu (20 uM). USP25 was immunoprecipitated and immunoblotted with phospho‐SQ/TQ (p‐SQ/TQ). b) HEK293T cells were pretreated with Ku55933 (25 µM) for 2 h followed by treatment with IR(10 Gy). After 1 h, USP25 was immunoprecipitated, left untreated, or treated with phosphatase and immunoblotted with p‐SQ/TQ. c) HEK293T cells transfected with USP25^WT and indicated constructs were left treated with IR(10 Gy). USP25 was immunoprecipitated and immunoblotted with p‐SQ/TQ. d) USP25 knockdowm U2OS cells rescued with USP25WT or USP25T523A were treated with IR (2 Gy), and co‐localization USP25 with γH2AX was detected by immunofluorescence. n>80 in each group. e) HEK293T cells were left untreated or treated with 5‐Fu (20 uM). […] The interaction USP25 and MDC1 deletions was detected. g) HEK293T cells transfected with USP25^WT or USP25^T523A were treated with IR, and cell lysates were incubated with GST or GST‐MDC1‐BRCT in vitro. The interaction USP25 and MDC1‐BRCT was detected. h) Non‐phosphorylated or phosphorylated Thr523 peptide was conjugated to beads and incubated with purified GST‐MDC1‐BRCT domain in buffer. […]

RKO and SW620 cells = assay: CCK8 survival assay, USP25 knockdown USP25-high colon cancer cells; format: cell-based; conditions: RKO: cisplatin (0, 0.5, 1, 3 µM), 5-Fu (0, 0.1, 0.5, 1, 3 µM), SW620: 5-Fu (0, 0.1, 0.5, 1, 3 µM), 72 h
Procedure: For long-term proliferation, cells were seeded in triplicate in each well of 96-well plates at a density of 1000 cells per well. After 24 h of culture, the cells were treated with the indicated doses of regents or peptides and incubated at 37 °C for 72 h. Subsequently, the medium was changed to a fresh medium containing cell counting kit-8 solution (Dojindo, CK04), and the cells were placed in the incubator for an additional 1-2 h. […] a) The mRNA expression levels of TRIM25, HECTD3, NEDD4L and WWP2 in human normal colon tissue samples (n=41) and colorectal adenocarcinoma tissue samples (n=286 COAD patients) from the Ualcan database were analyzed. b) The protein expression levels of USP25 were measured in HEK293T cells that stably expressed TRIM25 shRNA. c) NHEJ repair capacity of control or TRIM25 knockdown cells were subjected using a reporter assay. d-g) Immunoblot of USP25 in the RKO cells stably expressing control and USP25 shRNA. […] Statistical analysis was performed using t-test (a) or one-way ANOVA followed by a Turkey's multiple comparison test (c) or two-way ANOVA followed by a Turkey's multiple comparison test ([…]) .

## O=c1[nH]cc(F)c(=O)[nH]1 [5‐Fu, 5‐fluorouracil]
USP25-MDC1 interaction
  USP25-MDC1 interaction after treatment: increased following 5‐Fu or IR treatment
[1]
  interaction of MDC1 domains with USP25 after treatment: MDC1 BRCT‐domain but not FHA‐domain interacted with USP25
RKO and SW620 cells
  sensitization by USP25 knockdown, USP25-high cell lines: sensitized the cells to IR, cisplatin, and 5‐Fu treatment
